# Where no end group is shown, it is not given here. [ ]: non-standard residue; d: D form. hCit = NC(=O)NCCCC[C@H](N)C(=O)O
# T1: HLA-DP4 (Homo sapiens, UniProt P04440+P20036)
# T1 sequence (P20036 29-260): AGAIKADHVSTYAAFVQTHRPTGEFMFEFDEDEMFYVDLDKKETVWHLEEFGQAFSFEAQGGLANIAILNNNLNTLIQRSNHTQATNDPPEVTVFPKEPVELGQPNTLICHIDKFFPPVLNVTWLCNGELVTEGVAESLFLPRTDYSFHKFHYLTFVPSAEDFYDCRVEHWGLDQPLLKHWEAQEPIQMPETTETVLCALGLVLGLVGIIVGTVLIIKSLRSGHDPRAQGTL
# T1 sequence (P04440 30-258): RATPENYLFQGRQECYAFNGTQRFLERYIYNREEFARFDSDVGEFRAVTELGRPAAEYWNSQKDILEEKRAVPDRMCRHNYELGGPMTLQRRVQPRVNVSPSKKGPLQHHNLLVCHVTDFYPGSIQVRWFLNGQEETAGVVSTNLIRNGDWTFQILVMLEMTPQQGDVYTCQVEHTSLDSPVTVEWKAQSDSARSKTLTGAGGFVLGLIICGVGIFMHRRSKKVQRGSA
# B1: Aldolase A 289-307 Hcit (peptide)
# peptide: [hCit]CPLL[hCit]PWALTFSYGRALQ
# Target: T1, HLA-DP4
# Experiment: DP4 competition assay with biotinylated Hep B peptide
# Conditions: inhibition of biotinylated Hep B binding to HLA-DP4; 5 fold excess test peptide, equal amount for unlabelled Hep B
# Experimental: 2×T175 gave 2.5×10^7 B16 HHDII/DP4 (B16F1 β2M H2Ab1 dKO A35 HHDII/DP4 H7/2E9/F9 p14) cells. This was enough for 5 preps using the following protocol with Mem-PER™ Plus Membrane Protein Extraction Kit (thermo-scientific cat #89842).
# 5×10^6 cells were resuspended in the growth media by scraping the cells off the surface of the plate with a cell scraper and then centrifuged at 300 g for 5 mins. The cell pellet was washed with 3 ml of Cell Wash Solution and centrifuged at 300 g for 5 mins. The supernatant was removed and discarded. The cells were resuspended in 1.5 ml of Cell Wash Solution and transfer to a 2 ml centrifuge tube and centrifuged at 300 g for 5 mins. The supernatant was discarded. 0.75 ml of permeabilization buffer was added to the cell pellet and vortexed briefly to obtain a homogeneous cell suspension and incubated for 10 mins at 4° C. with constant mixing. The permeabilized cells were centrifuge for 15 mins at 16,000g before carefully removing the supernatant containing cytosolic proteins and transfering to a new tube. 0.5 ml of solubilization buffer was added to the pellet and resuspend prior to incubating at 4° C. for 30 minutes with constant mixing prior to centrifugation at 16,000g for 15 mins at 4° C. The supernatant containing solubilized membrane and membrane-associated proteins was transfered to a new tube. Aliquots were frozen at −80° C. for future use. 12.5 μl Halt™ Protease and Phosphatase Inhibitor Cocktail, EDTA-free (100X) thermo-scientific (Catalog number 78445) was added prior to freezing.
# High binding plates were coated with streptavidin (Sigma S4762 at 1 mg/ml) 1/500 in PBS and incubated overnight at 4° C. The plates were blocked with 1% BSA in PBS for 4 hrs at room temp and washed 3×PBS/0.5% Tweenx. 450 μl of cell prep lysate (B16F1 B16 HHDII/DP4 H7/2E9/F9) was mixed with 50 μg test peptide (see below) or 10 μg of unlabelled Hep B peptide for 30 mins. 10 μg biotinylated Hep B peptide was added & incubated for 4 hrs at 37° C.:
# Lysate/peptide mix was added to the plates at 100 μl/well and incubated for 4 hrs at room temperature. Plates were washed 3× with PBS/0.5% Tween. 100 μl per well of Leinco anti-Human HLA-DP4 clone B7/21 #H260 1 mg/ml at 1/500 dilution in 1% BSA/PBS was added and incubated for 1 hr at room temperature prior to washing 3× PBS/0.5% Tween. Goat anti-mouse lgG3-HRP at 0.5 mg/ml 1/500 100 μl per well (Invitrogen #M32607) diluted in 1% BSA/PBS) was added for 1 hr at room temperature prior to washing and adding 150 μl of TMB substrate to each well. The reaction was stopped with 50 μl of 2N H2SO4 and plates read plate at 450 nm.
# To ensure that the biotinylation of Hep B had not interfered with its binding, HLA-DP4 was incubated with equal amounts of biotinylated and unlabelled Hep B peptide. Unlabelled peptide competed equally reducing binding by 47% (FIG. 53b).
# The biotinylated HepB peptide was then incubated with a 5 fold excess of the unlabelled homocitrulline peptides. All peptides inhibited the binding of biotinylated Hep B to HLA-DP4 but to varying levels (FIG. 53c-e).
row,Molecule,% inhibition [%]
1,"GFFLLTRILTIPQ [HepB, reference compound]",47
2,"KDGADFAKWRCVLKIGEH [Aldolase A 140-157 WT, reference compound]",29
3,"IGGVILFHETLYQKADDGRP [Aldolase A 74-93 WT, reference compound]",27

# Test system: HLA-HHDII/DP4 mice
# Experiment: Ex vivo IFNγ ELISpot after peptide immunisation, HHDII/DP4 mice
# Assay type: in vivo, mouse
# Conditions: not given
# Experimental: (§1) C57BL/6 mice (Charles River, UK), HLA-DR4 mice (Model #4149, Taconic, USA), HLA-A2/DR1 (HHDII/DR1, Pasteur Institute), HLA-A2.1+/+HLA-DP4+/+hCD4+/+ (HLA-HHDII/DP4) transgenic mice (EM: 02221, European Mouse Mutant Archive) described in patent WO2013/017545 A1 (EMMA repository, France) were used, aged between 8 and 12 weeks. Peptides were dissolved in PBS to 1 mg/ml and then emulsified (a series of dilutions) with CpG ODN 1826 and MPLA 6 μg/mouse of each (Invivogen, UK). Peptides (25 μg/mouse) were injected subcutaneously at the base of the tail. Mice were immunised at days 1, 7 and 14 for peptide immunisation. Spleens were removed for analysis at day 21 unless stated otherwise.
# (§2) ELISpot assays were performed using murine IFNγ, IL-17 and IL-10 capture and detection reagents according to the manufacturer's instructions (Mabtech, Sweden). In brief, anti-IFNγ, IL-17 and IL-10 specific antibodies were coated onto wells of 96-well Immobilin-P plate. Synthetic peptides (at various concentrations) and 5×10^5 per well splenocytes were added to wells of the plate in quadruplicate Tumour target cells were added where relevant at 5×10^4/well in triplicate and plates incubated for 40 hrs at 37° C. After incubation, captured IFNγ, IL-10 and IL-17 were detected by biotinylated anti-IFNγ, IL-10 and IL-17 antibodies and developed with a streptavidin alkaline phosphatase and chromogenic substrate. Lipopolysaccharide (LPS; 5 μg/ml) was used as a positive control. For MHC blocking studies, anti-CD4 blocking antibody (GK1.5) or anti-CD4 blocking antibody (RPA-T4) for HHDII/DP4 mice which express human CD4 and anti-CD8 blocking antibody (2.43) from Bioxcell were used at 20 μg/ml. Spots were analysed and counted using an automated plate reader (Cellular Technologies Ltd).
# Screening was performed to identify potential homocitrullinated ALDOA epitopes in transgenic HHDII/DP4 and HHDII/DR1 mice. Mice were immunised with pools of human homocitrullinated peptides. […] Each pool was administered as three immunisations containing 20 μg of each peptide and CpG/MPLA as an adjuvant. After 21 days the mice were culled and the immune responses to each peptide within the immunising pool were assessed by ex vivo ELISpot in HHDII/DP4 (FIG. 4b) and HHDII/DR1 mice (FIG. 4d). […] Our predictions therefore identified 3/5 peptides which could induce a T cell response. […] Of the responding peptides ALDOA 74-93 Hcit and 140-157 Hcit peptides are homologous in human and mice therefore these two peptides were selected for further investigation. Minimal IL-10 (FIG. 6b) or IL-17 (FIG. 6c) responses were seen to Aldolase peptides in HHDII/DP4 mice.
# Using this combination of predictions, 5 CyK8 peptides containing homocitrulline were synthesised (Table 4). Screening was performed to identify potential homocitrullinated Cyk8 epitopes in transgenic HHDII/DP4. Mice were immunised with pools of human homocitrullinated peptides. […] Each pool was administered as three immunisations containing 20 μg of each peptide and CpG/MPLA as an adjuvant. After 21 days the mice were culled and the immune responses to each peptide within the immunising pool were assessed by ex vivo ELISpot in HHDII/DP4 (FIG. 10a). […] The responses to CyK8 101-120 Hcit, 112-131 Hcit, 182-201 Hcit, 371-388 Hcit and 381-399 Hcit immunisation were characterised for cross reactivity to the wt peptide sequence. […] Thus a key characteristic of immunogenic peptides is they express homocitrulline. All of these peptides (100%) were immunogenic. Thus a high predicted HLA-DP4 binding affinity (<30), the presence of homocitrulline residues in the core region, the peptide being amphipathic in nature with a predominantely spiral conformational structure upon 3D modelling, and the existence of homology between the mouse and human sequences defines immunogenicity. When this model was applied retrospectively to include the vimentin and ALDOA peptides 8/9 (88%) were correctly predicted. […]
Molecule,cross reactivity of Hcit response to wt peptide,IFNγ response in presence of CD4 blocking antibody,IFNγ response in presence of CD8 blocking antibody
GGSLP-Hcit-VEA-Hcit-FINYV-Hcit-NCFR [NPM 258-277 Hcit],significantly higher,,
YVTE-Hcit-VLAAVY-Hcit-ALSD [Aldolase 204-219 Hcit],significantly higher,,
EELNMDLFRSTM-Hcit-PVQ-Hcit-VL [BiP 328-346 Hcit],significantly higher,,
Hcit-MLET-Hcit-WSL [Cyk8 117-125Hcit],,not in the presence of CD4 blocking antibody,blocked

# Same assay, conditions: 3 immunisations with CpG/MPLA, day 21
row,Molecule,IFNγ ELISpot response
1,EDFSETLTRA-Hcit-FEELNMDLFR [BiP 316-336 Hcit],stimulation of IFNγ responses
2,Hcit-MALDIEIATYR-Hcit-LLEGEE [Vimentin 390-408 Hcit],stimulation of IFNγ responses
3,VLAAVY-Hcit-AL [Aldolase 209-217],stimulation of IFNγ responses
4,DVAASEFFRSG-Hcit-YDLDF-Hcit-SP [Alpha enolase 245-264 Hcit],stimulation of IFNγ responses
5,GGSLP-Hcit-VEA-Hcit-FINYV-Hcit-NCFR [NPM 258-277 Hcit],stimulation of IFNγ responses
6,YVTE-Hcit-VLAAVY-Hcit-ALSD [Aldolase 204-219 Hcit],stimulation of IFNγ responses
7,RSERLA-Hcit-YNQLLRIEEELGS [Alpha enolase 400-419 Hcit],stimulation of IFNγ responses
8,EELNMDLFRSTM-Hcit-PVQ-Hcit-VL [BiP 328-346 Hcit],stimulation of IFNγ responses
9,Hcit-MLET-Hcit-WSL [Cyk8 117-125Hcit],generation of responses
10,PLRPQNYLFGCEL-Hcit-AD-Hcit- [NPM 11-27 Hcit],stimulation of IFNγ responses

# Same assay, conditions: splenocytes after 7 days culture
Molecule,IFNγ response in presence of CD4 blocking antibody,IFNγ response in presence of CD8 blocking antibody
EDFSETLTRA-Hcit-FEELNMDLFR [BiP 316-336 Hcit],loss of response,
Hcit-MALDIEIATYR-Hcit-LLEGEE [Vimentin 390-408 Hcit],loss of response,
VLAAVY-Hcit-AL [Aldolase 209-217],,lost
DVAASEFFRSG-Hcit-YDLDF-Hcit-SP [Alpha enolase 245-264 Hcit],lost,
GGSLP-Hcit-VEA-Hcit-FINYV-Hcit-NCFR [NPM 258-277 Hcit],blocking of the response,not with the CD8 blocking antibody
YVTE-Hcit-VLAAVY-Hcit-ALSD [Aldolase 204-219 Hcit],partial loss of response,partial loss of response
RSERLA-Hcit-YNQLLRIEEELGS [Alpha enolase 400-419 Hcit],lost,
EELNMDLFRSTM-Hcit-PVQ-Hcit-VL [BiP 328-346 Hcit],loss of response,
PLRPQNYLFGCEL-Hcit-AD-Hcit- [NPM 11-27 Hcit],blocking of the response,not with the CD8 blocking antibody

# Test system: HLA-HHDII/DR1 mice
# Experiment: Ex vivo IFNγ ELISpot after peptide immunisation, HHDII/DR1 mice
# Assay type: in vivo, mouse
# Conditions: not given
# Experimental: as §1, §2
# Screening was performed to identify potential homocitrullinated vimentin epitopes in mice. Mice were immunised with pools of homocitrullinated peptides. […] Each pool was administered as three immunisations containing 20 μg of each peptide and CpG/MPLA as an adjuvant on day 1, 8 and 15. On day 21 the mice were culled and the immune responses to each peptide within the immunising pool were assessed by ex vivo ELISpot. Given that different mouse strains have different MHC repertoires a number of strains were used for screening. Peptide responses were assessed in transgenic strains expressing human DR4 or HHDII/DR1 in a C57BL/6 background (see methods). […]
# The five selected homocitrullinated Cyk8 peptides were also screened in HHDII/DR1 transgenic mice. […] Response to Cyk8 112Hcit peptide in the HHDII/DR1 mice was lost in the presence of CD8 blocking antibody but less effect of the CD4 blocking antibody was seen (FIG. 12b). […] Responses to homocitrullinated Cyk8 peptides show both CD4 and CD8 mediated responses.
Molecule,cross reactivity of Hcit response to wt peptide,IFNγ response in presence of CD8 blocking antibody
VLAAVY-Hcit-AL [Aldolase 209-217],lower reactivity,
YVTE-Hcit-VLAAVY-Hcit-ALSD [Aldolase 204-219 Hcit],lower reactivity,
Hcit-MLET-Hcit-WSL [Cyk8 117-125Hcit],,lost

# Same assay, conditions: 3 immunisations with CpG/MPLA, day 21
row,Molecule,IFNγ ELISpot response
1,VLAAVY-Hcit-AL [Aldolase 209-217],strong responses
2,YVTE-Hcit-VLAAVY-Hcit-ALSD [Aldolase 204-219 Hcit],strong responses
3,Hcit-MLET-Hcit-WSL [Cyk8 117-125Hcit],generation of responses
4,"LEQQNKMLETKWSLLQQQKT [Cyk8 112 wt, reference compound]",no specific response

# Target: HLA-DP4 (human)
# Experiment: DP4 competition ELISA; competitor biotinylated Hep B peptide; 5 fold excess of unlabelled peptide
# Conditions: not given
row,Molecule,% inhibition [%]
1,Cytokeratin 8 371-388 Hcit (peptide),72
2,Cytokeratin 8 182-202 Hcit (peptide),61
3,Aldolase A 140-157 WT (peptide),29
4,Aldolase A 238-256 Hcit (peptide),73
5,Vimentin 116-135 WT (peptide),48
6,Aldolase A 74-93 WT (peptide),27
7,B1,45
